From the supplement of paper PMC10307832

Legend:
Test in all cases: relative viability (nuclei count vs DMSO), 5 days (fraction); higher = more cells survive
[1] = compound: CC1=CC=C(C=C1)C(=O)CN2C3=C(CCCC3)SC2=N [Pifithrin_alpha] + CC(C)C[C@H](NC(=O)[C@H](Cc1ccccc1)NC(=O)c1cnccn1)B(O)O [Bortezomib] (partner 0.002 µM)
Outline: (§1)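 After 5 days of treatment, lung cancer cells in 1536-well plates were fixed and stained in a single step (final 0.05% Triton X-100, 1% formaldehyde, 1 ug/ml Hoechst) and their nuclei counted on 4× images. Treatment had been applied by pin tool the day after seeding as one drug alone or as a fixed anchor-drug dose with five library-drug doses (not always all listed) in √10 steps. Relative viability is the nuclei count of treated wells divided by that of vehicle wells, and values are medians of duplicate plates.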

Axitinib + Bortezomib = compound: CNC(=O)c1ccccc1Sc1ccc2c(/C=C/c3ccccn3)n[nH]c2c1 [Axitinib] + CC(C)C[C@H](NC(=O)[C@H](Cc1ccccc1)NC(=O)c1cnccn1)B(O)O [Bortezomib] (partner 0.002 µM)
Outline: as §1

Axitinib + Dasatinib = compound: CNC(=O)c1ccccc1Sc1ccc2c(/C=C/c3ccccn3)n[nH]c2c1 [Axitinib] + Cc1nc(Nc2ncc(C(=O)Nc3c(C)cccc3Cl)s2)cc(N2CCN(CCO)CC2)n1 [Dasatinib] (partner 0.075 µM)
Outline: as §1

Axitinib + Crizotinib = compound: CNC(=O)c1ccccc1Sc1ccc2c(/C=C/c3ccccn3)n[nH]c2c1 [Axitinib] + C[C@@H](Oc1cc(-c2cnn(C3CCNCC3)c2)cnc1N)c1c(Cl)ccc(F)c1Cl [Crizotinib] (partner 1 µM)
Outline: as §1

Row | Cell Line | relative viability ([1]; first compound 1 µM) | relative viability ([1]; first compound 3.162 µM) | relative viability ([1]; first compound 10 µM) | relative viability ([1]; first compound 31.62 µM) | relative viability ([1]; first compound 100 µM) | relative viability (Axitinib + Bortezomib; first compound 0.005 µM) | relative viability (Axitinib + Bortezomib; first compound 0.01581 µM) | relative viability (Axitinib + Bortezomib; first compound 0.05 µM) | relative viability (Axitinib + Bortezomib; first compound 0.1581 µM) | relative viability (Axitinib + Bortezomib; first compound 0.5 µM) | relative viability (Axitinib + Dasatinib; first compound 0.005 µM) | relative viability (Axitinib + Dasatinib; first compound 0.01581 µM) | relative viability (Axitinib + Dasatinib; first compound 0.05 µM) | relative viability (Axitinib + Dasatinib; first compound 0.1581 µM) | relative viability (Axitinib + Dasatinib; first compound 0.5 µM) | relative viability (Axitinib + Crizotinib; first compound 0.005 µM) | relative viability (Axitinib + Crizotinib; first compound 0.01581 µM) | relative viability (Axitinib + Crizotinib; first compound 0.05 µM) | relative viability (Axitinib + Crizotinib; first compound 0.1581 µM) | relative viability (Axitinib + Crizotinib; first compound 0.5 µM)
1 | NCI-H2009 | 0.551 | 0.907 | 0.942 | 0.444 | 0.798 | 1.1 | 1.11 | 1.04 | 1.04 | 1.16 | 0.303 | 0.35 | 0.355 | 0.301 | 0.413 | 1.17 | 1.14 | 1.01 | 1.08 | 1.16
2 | NCI-H1944 |  |  |  |  |  |  |  |  |  |  | 0.213 | 0.223 | 0.214 | 0.202 | 0.188 | 1.05 | 1.24 | 1.03 | 1.15 | 1.18
3 | SW 1573 | 1.01 | 0.98 | 1.13 | 0.899 | 1.14 | 1.19 | 1.05 | 0.944 | 0.923 | 0.994 | 0.586 | 0.564 | 0.796 | 0.365 | 0.424 | 0.745 | 0.844 | 0.905 | 0.917 | 0.913
4 | NCI-H1975 | 0.34 | 0.306 | 0.305 | 0.335 | 0.271 | 0.404 | 0.357 | 0.397 | 0.394 | 0.463 | 0.413 | 0.342 | 0.393 | 0.347 | 0.39 | 1.13 | 1.05 | 1.15 | 0.931 | 1.08
5 | NCI-H661 | 0.784 | 0.82 | 0.909 | 0.925 | 1.02 | 0.93 | 0.83 | 0.648 | 0.785 | 0.842 | 1.01 | 0.737 | 0.843 | 0.83 | 0.927 | 0.976 | 1.03 | 0.995 | 1.02 | 1.08
6 | UMC-11 | 0.818 | 0.803 | 0.759 | 0.574 | 1.05 | 0.977 | 0.722 | 0.65 | 0.637 | 0.589 | 0.447 | 0.442 | 0.448 | 0.444 | 0.54 | 0.556 | 0.59 | 0.59 | 0.584 | 0.482
7 | NCI-H520 | 0.64 | 0.771 | 0.567 | 0.386 | 0.739 | 0.685 | 0.698 | 0.474 | 0.5 | 0.705 | 0.197 | 0.159 | 0.194 |  | 0.192 | 0.72 | 0.829 | 0.734 | 0.542 | 0.776
8 | COR-L23 | 1.01 | 0.928 | 0.973 |  | 0.908 | 1.05 | 1.04 | 0.943 | 0.959 | 1.2 | 0.53 | 0.542 | 0.438 | 0.493 | 0.674 | 0.696 | 0.564 | 0.596 | 0.623 | 0.778
9 | NCI-H2023 | 0.724 | 0.86 | 0.856 | 0.408 | 0.669 | 0.968 | 1 | 1.03 | 0.834 | 1.02 | 0.537 | 0.525 | 0.701 | 0.515 | 0.621 | 0.699 | 0.786 | 0.651 | 0.73 | 0.684
10 | NCI-H1650 | 0.182 | 0.202 | 0.18 | 0.189 | 0.169 | 0.209 | 0.208 | 0.191 | 0.195 | 0.22 | 0.317 | 0.318 | 0.324 | 0.332 | 0.302 | 0.979 | 0.949 | 1.04 | 0.947 | 1.13
11 | NCI-H2170 |  |  |  |  |  |  |  |  |  |  | 0.606 | 0.579 | 0.64 | 0.582 | 0.522 | 1.2 | 1.18 | 1.27 | 1.1 | 1.35
12 | SW 900 |  |  |  |  |  |  |  |  |  |  | 0.439 | 0.555 | 0.663 | 0.653 | 0.709 |  |  |  |  | 
13 | A549 |  |  |  |  |  |  |  |  |  |  |  |  |  |  |  | 0.763 | 0.734 | 0.776 | 0.49 | 0.744
14 | NCI-H1623 |  |  |  |  |  |  |  |  |  |  | 0.574 | 0.477 | 0.559 | 0.528 | 0.506 |  |  |  |  | 
15 | NCI-H2342 |  |  |  |  |  |  |  |  |  |  | 0.311 | 0.325 | 0.347 | 0.349 | 0.297 |  |  |  |  | 
16 | NCI-H1299 | 1.08 | 1.02 | 1.02 | 0.896 | 1.03 | 1.05 | 0.989 | 1.07 | 0.976 | 1.06 |  |  |  |  |  | 0.997 | 0.947 | 0.986 | 1 | 1.04
17 | NCI-H1793 |  |  |  |  |  |  |  |  |  |  | 0.406 | 0.405 | 0.394 | 0.293 | 0.301 |  |  |  |  | 
18 | NCI-H1395 |  |  |  |  |  |  |  |  |  |  | 0.403 | 0.425 | 0.39 | 0.404 | 0.397 |  |  |  |  | 
19 | HCC-44 | 0.916 | 0.851 | 0.793 | 0.68 | 0.652 | 0.925 | 0.859 | 0.855 | 0.89 | 1.01 |  |  |  |  |  | 0.898 | 0.834 | 0.841 | 0.792 | 0.869
20 | NCI-H522 |  |  |  |  |  |  |  |  |  |  | 1.51 | 0.842 | 0.883 | 0.898 | 0.728 |  |  |  |  | 
21 | EBC-1 | 0.512 | 0.411 | 0.437 | 0.354 | 0.287 | 0.631 | 0.657 | 0.521 | 0.565 | 0.629 |  |  |  |  |  | 0.22 | 0.213 | 0.192 | 0.202 | 0.195
22 | Calu-6 | 1.07 | 1.04 | 0.899 | 0.569 | 0.881 | 1.11 | 0.944 | 0.956 | 1.1 | 0.996 |  |  |  |  |  | 0.82 | 0.795 | 0.783 | 0.865 | 0.961
23 | LK-2 |  |  |  |  |  |  |  |  |  |  | 0.333 | 0.305 | 0.343 | 0.282 | 0.223 | 0.235 | 0.264 | 0.252 | 0.219 | 0.216
24 | NCI-H1703 | 0.416 | 0.344 | 0.368 | 0.288 | 0.279 | 0.353 | 0.228 | 0.161 | 0.212 | 0.207 |  |  |  |  |  | 0.777 | 0.27 | 0.158 | 0.136 | 0.237
